Assay [1] concerns S. aureus 3626 (MRSA). The assay can be described thus: In vitro antibacterial activity, agar dilution method. The note with it: 10^6 cfu/ml. It is filed as cell-based. The procedure: (§1) Antibacterial activity in vitro of antibiotic stalobacins H and I obtained in Example 1 was assayed by the agar dilution method.
For assay [2], the system named is S. aureus FDA JC-1. The assay is described as above. It counts as cell-based. The following applies: 10^6 cfu/ml. The protocol: as §1
Assay [3] concerns S. faecalis SR1004. The description is as above. It counts as cell-based. The following applies: 10^6 cfu/ml. The protocol: as §1
Assay [4] has as its system E. faecalis SR1004. The experiment in a line: Protective effect in systemically infected mice. It is filed as in vivo. The following applies: mice challenged intraperitoneally with E. faecalis SR1004; subcutaneous administration one hour after challenge; survival ratio on 7th day. The protocol:
(§2) Antibacterial activity in vivo of stalobacin I was assayed. Mice were intraperitoneally challenged with infectious bacteria. One hour after the challenge, the test compound was subcutaneously administered. ED50 values was calculated on the basis of survival ratio on 7th day after the challenge. MIC was determined according to the agar dilution method.

The subject of assay [5] is S. aureus SR3637 (H-MRSA). The assay can be described thus: Protective effect in systemically infected mice. The following applies: mice challenged intraperitoneally with S. aureus SR3637 (H-MRSA); subcutaneous administration one hour after challenge; survival ratio on 7th day. It counts as in vivo. The procedure:
as §2

Assay [6] concerns S. pneumoniae Type I. The experiment in a line: Protective effect in systemically infected mice. It is filed as in vivo. The following applies: mice challenged intraperitoneally with S. pneumoniae Type I; subcutaneous administration one hour after challenge; survival ratio on 7th day. The protocol: as §2
In assay [7] the test system is E. faecalis SR1004. It counts as cell-based. The procedure: as §2
For assay [8], the system named is S. aureus SR3637 (H-MRSA). It is filed as cell-based. The procedure:
as §2

The test system of assay [9] is S. pneumoniae Type I. It counts as cell-based. The procedure: as §2

Converted amounts (≈) assume the structure as drawn.

In the case of `CCCCCC/C=C\CCCCC[C@@H]1C[C@H]1/C=C/C(O)C(=O)N[C@H](C(=O)N(C)[C@@H](CC(=O)O)C(=O)N(COC(C)(CC)C(NC(=O)C(NC(=O)[C@@H](N)CC(=O)O)C(O)C(O)CNC(=N)N)C(=O)NCC(=O)N[C@@H](CO)C(=O)O)[C@@]12C[C@@H]1CN(C(=N)N)C2=O)[C@H](O)C(=O)O` (stereo partly drawn) [Stalobacin I], the “Antibacterial activity in vitro” value in [1] came out at 0.1 µg/mL; in [2], 0.05 µg/mL; in [3], 0.2 µg/mL. The ED50 (as a rule, the dose that gives a 50% effect, or the effect in half of the subjects) is 1.50 mg/kg in assay [4], 0.12 mg/kg in [5] and 0.046 mg/kg in assay [6]. In addition, the MIC (in general, the least concentration at which growth counts as inhibited) in assay [7] is 0.2 µg/mL (≈ 151 nM); in [8] it was 0.012 µg/mL (≈ 9.05 nM); in [9] it was 0.006 µg/mL (≈ 4.53 nM).

The values are drawn from patent EP0748335B1, “ANTIBIOTIC STALOBACINS” (SHIONOGI & CO., LTD., priority 1994, dated 1995).
